Results taken from patent US9255088B2, “Premature-termination-codons readthrough compounds” (The Regents of the University of California, priority 2010, dated 2016).
Entries after “also recorded” stand apart in the source; their conditions may differ.

Key:
[1] = test system: ATMs1981 autophosphorylation in AT153LA cells (TGA); test: Flow cytometry ATMs1981 autophosphorylation (FC-ATM) in AT153LA cells; format: cell-based, human; parameters: FC-ATM (Delta-FI, 30 μM): unit not given here; details: for FCATMs1981: summary of positive results; for FCATMs1981: key: the positive results on various assays are also summarized and labeled as '+'
Protocol: FC-SMC1 assay was performed as recently described (Nahas et al., 2009). FC-ATM-Ser1981 assay was based on Honda's assay (Honda et al., 2009, Leukemia. 23:409-414) with modifications. In brief, cells were resuspended in PBS and radiated for 10 Gy. After 1 h, the cells were fixed and permeabilized using the FIX & PERM cell permeabilization kit (Invitrogen). The cells were then incubated with 1 μl of mouse ATM-Ser1981 antibody (Cell Signaling Technology) for 2 h at room temperature. Cells were washed and resuspended in 100 μl PBS with Alexa Fluor 488 anti-mouse IgG (Invitrogen) for 45 min. Cells were next washed and resuspended in PBS with 0.2% paraformaldehyde and analyzed using a FACSCalibur (BD).
Studies on readthrough activity of RTC#13 derivatives as measured by FC-ATMS 1981 were performed according to the procedures provided in Example 1.
These two series, 7 and 9, were tested for readthrough activity using an assay in which the ATM protein kinase activity was measured using a flow cytometry-based ATMs1981 autophosphorylation assay (FC-ATM) (Nahas, S. A; et al., Clin. Chem. 2009, 55, 463-72). […] An increased Delta-FI indicates the restoration of ATM kinase activity by a compound.
(§1) These two series, 13 and 15, were again tested for readthrough activity using the assay in which the ATM protein kinase activity was measured by functional flow cytometry (FC-ATM) (Table 4 and FIG. 12). A second assay, irradiation (1R)-induced ATMs1981 nuclear foci formation (IRIF-ATM), was also used to confirm the readthrough activity of these compounds (Table 4 and FIG. 13). Table 3 summarizes the data for the analogues 13 and 15 (at 30 μM), in which the groups R, R′, and X were varied. More detailed data are reported in FIG. 5 (for FC-ATM assay), and in FIG. 6 (for IRIF-ATM assay). […] Thus, the pyrimidinedione unit serves as a good structural replacement for the 2-imino and 2-thioxo thiazolidin-4-one units.

[2] = test system: plasmid-TAT51: ATM region 5 fragment with nonsense (PTC) mutation c.5623C→T (TGA C); test: PTT-ELISA readthrough assay, plasmid-TAT51 (TGA C); details: summary of positive results; plasmid not stated
[3] = test system: dystrophin in mdx myotubes (TAA); test: Dystrophin expression in mdx myotubes; format: cell-based, mouse; details: FIG. 21
Protocol: To investigate the ability of RTC#13 and #14 to readthrough a PTC mutation in genes other than ATM, we used mdx myotubes. The mdx mouse has been widely used as a model for Duchenne muscular dystrophy. It carries a C to T transition in exon 23 of the dystrophin gene that creates a premature stop codon (TAA), resulting in an absence of dystrophin protein (Sicinski, et al., 1989, Science. 244:1578-1580). […] Muscle progenitor cells isolated from mdx mice were induced to differentiate for 24 h before addition of gentamicin or compounds RTC#13 and #14. Myotube cultures were exposed to compounds for 72 h and then analyzed for dystrophin by Western blotting. […] We next used immunoprecipitation to increase the sensitivity of the assay (FIG. 8). […] Results were consistent in multiple experiments performed.
Cells were prepared and treated with RTCs for 3 d. Dystrophin proteins were detected by Western blot analysis using immunoprecipitation. Wild-type cells were used in the experiment to localize dystrophin protein. Gentamicin was used as a positive readthrough control. […] Results were consistent in three independent experiments.
Cells were derived from limb muscle of neonatal mdx and C57 mice, as previously described (Bertoni and Rando, 2002, Hum. Gene Ther. 13:707-718). For growth, cells were plated on dishes coated with 5 µg/ml laminin (Invitrogen) and maintained in growth medium consisting of Ham's F10 nutrient mixture (Mediatech, Inc.) supplemented with 20% fetal bovine serum, penicillin, and streptomycin. Cell differentiation was induced by maintaining the cells in low serum medium (differentiation medium) consisting of DME supplemented with 2% horse serum, penicillin, and streptomycin. Myoblasts were plated in wells of 6-well dishes and were allowed to differentiate for 24 h before adding the compounds. Media was replaced every 24 h with fresh differentiation media containing the compounds. Cells were lysed 96 h after induction of differentiation (72 h after addition of the compounds). Total protein was determined and dystrophin immunoblot analysis was performed as previously described (Sicinski et al., 1989). 250 μg of total protein from each sample was immunoprecipitated using a monoclonal antibody directed toward the rod domain (MANDYS—8; 1:40; Sigma-Aldrich) of the dystrophin protein and detected by Western blotting (Barton-Davis et al., 1999, J. Clin. Invest. 104:375-381; Bertoni and Rando, 2002).
Muscle cells were induced to differentiate to allow the formation of myotubes and synthesis of dystrophin mRNA. Compounds were added 24 hrs after induction of differentiation by direct addition into the media. The media was replaced every 24 hrs with fresh differentiation media containing the appropriate concentration of compounds. Myotubes were harvested 72 hrs later (96 hrs after induction of differentiation) and analyzed for dystrophin expression by immunoblot analysis (FIG. 14).
Cultures were analyzed for dystrophin expression by immunohistochemistry.
In the experiments shown in FIG. 21, the activity of two of the analogs of RTC#13 termed RTC#BZ6 and RTC#BZ16 was investigated in myotube cultures isolated from mdx mice. Compounds were added to the differentiation media 24 hrs after induction of differentiation and replaced every 24 hrs by changing the media with new fresh media containing the appropriate concentration of RTC#13, RTC#BZ6 or RTC#BZ16. […] No dystrophin expression was detected in cells treated with vehicle only at a final concentration of 10 μM.

[4] = test system: ATM-Ser1981 foci in AT153LA cells (TGA A); test: Irradiation-induced ATM-Ser1981 foci (IRIF) in AT153LA cells; for IRIF (ATMs1981): key: the positive results on various assays are also summarized and labeled as '+'; format: cell-based, human; details: for IR-induced ATMs1981 foci formation, readthrough activity: A-T153LA cells (TGA), FIG. 13; for IRIF-ATM (%) (30 μM): Table 4, IR-induced ATMs1981 nuclear foci formation
Protocol: To evaluate the function of RTC-induced ATM protein, we measured irradiation-induced foci (IRIF) formation of ATM-Ser1981 in the same ATI53LA cells (TGA A). […] The maximum IRIF induction achieved in A-T cells by 10 μM RTC#13 was ˜40% of wild-type level. As a positive readthrough control, 144 μM of G418 (100 μg/ml) was used to treat cells. Our previous studies had shown that, at this concentration, […] induced a maximum level of ATMs1981 IRIF (Lai et al., 2004).
Immunostaining of nuclear foci of ATM-Ser1981 was performed as previously reported (Du et al., 2007). In brief, after being treated with compound for 4 d, cells were irradiated with 2 Gy and incubated at 37° C. for 30 min. The cells were dropped onto coverslips, fixed with 4% paraformaldehyde, and permeabilized. Coverslips were blocked for 1 h and incubated with mouse anti-ATM pSer1981 for 1 h (1:500; Rockland Immunochemicals, Inc). After a second blocking, cells were stained with FITC-conjugated anti-mouse IgG (1:150; Jackson ImmunoResearch Laboratories) for 1 h and mounted onto slides.
Studies on IR-induced ATMs1981 foci formation by RTC#13 and derivatives 13a, 13b, 13d, 13e, 13f, 13g, 13h, 13i, 13j, and 13k in A-T153LA cells (TGA) were performed according to the procedures provided in Example 1.
as §1

[5] = cited from earlier work
[6] = Table 2, compounds 7, 30 µM, change in fluorescence intensity before and after ionizing radiation
[7] = Table 4, compounds 13 and 15, 30 μM

Compound	FC-ATM (Delta-FI, 30 μM) [1, 6]	PTT-ELISA [2]	FCATMs1981 [1]	other results
N=C1NC(=O)/C(=C/c2ccc(-c3ccccc3)o2)S1 [Compound 7a, (Z)-2-imino-5-((5-phenylfuran-2-yl)methylene)thiazolidin-4-one]	negative	+		
O=C1NC(=S)S/C1=C\c1ccc(-c2ccccc2[N+](=O)[O-])o1 [Compound 7b, (Z)-5-((5-(2-nitrophenyl)furan-2-yl)methylene)-2-thioxothiazolidin-4-one]	negative	+		
N=C1NC(=O)/C(=C/c2ccc(-c3ccccc3C(F)(F)F)o2)S1 [Compound 7d, (Z)-2-imino-5-((5-(2-(trifluoromethyl)phenyl)furan-2-yl)methylene)thiazolidin-4-one]	negative	+		
N=C1NC(=O)/C(=C/c2c[nH]c(=O)[nH]c2=O)S1 [Compound 13k, (Z)-5-((2-imino-4-oxothiazolidin-5-ylidene)methyl)pyrimidine-2,4(1H,3H)-dione]			+	FC-ATM readthrough activity [1]: good activity; FC-ATM (Delta-FI, 30 μM) [1, 7]: 5.32; dystrophin expression in mdx myotube cultures [3]: levels of dystrophin expression comparable to that achieved using the parent compound RTC#13; IR-induced ATMs1981 foci formation, readthrough activity [4]: statistically significant readthrough activity; also recorded: good activity; IRIF-ATM (%) (30 μM) [4]: 17%; IRIF (ATMs1981) ([4]; summary of positive results): +
N=C1NC(=O)/C(=C/c2ccc(-c3cccc(F)c3)o2)S1 [Compound 7j, (Z)-5-((5-(3-fluorophenyl)furan-2-yl)methylene)-2-iminothiazolidin-4-one]	negative	+		
O=c1ccn(Cc2ccc(-c3ccccc3[N+](=O)[O-])o2)c(=O)[nH]1 [Compound 13a, 1-((5-(2-nitrophenyl)furan-2-yl)methyl)pyrimidine-2,4(1H,3H)-dione]			+	FC-ATM (Delta-FI, 30 μM) [1, 7]: 4.94; concentration giving the highest level of readthrough activity [3]: 5 µM; dystrophin expression in mdx myotube cultures [3]: effective; IR-induced ATMs1981 foci formation, readthrough activity [4]: statistically significant readthrough activity; IRIF-ATM (%) (30 μM) [4]: 10.67%
COc1ccccc1-c1ccc(/C=C2\SC(=N)NC2=O)o1 [Compound 7e, (Z)-2-imino-5-((5-(2-methoxyphenyl)furan-2-yl)methylene)thiazolidin-4-one]	negative	+		
O=C1NC(=S)S/C1=C\c1ccc(-c2ccccc2F)o1 [Compound 7n, (Z)-5-((5-(2-fluorophenyl)furan-2-yl)methylene)-2-thioxothiazolidin-4-one]	2.86	+	+	
O=c1[nH]c(=O)n(Cc2ccc(-c3ccccc3[N+](=O)[O-])o2)cc1F [Compound 13b, 5-fluoro-1-((5-(2-nitrophenyl)furan-2-yl)methyl)pyrimidine-2,4(1H,3H)-dione]			+	FC-ATM (Delta-FI, 30 μM) [1, 7]: 2.08; IR-induced ATMs1981 foci formation, readthrough activity [4]: statistically significant readthrough activity; IRIF-ATM (%) (30 μM) [4]: 14.5%
O=C(O)c1cccc(-c2noc(-c3ccccc3F)n2)c1 [PTC124]				tolerability ([5]; phase-I clinical study in cystic fibrosis): generally well tolerated; readthrough activity compared with aminoglycosides ([5]; phase-I clinical study): more efficient readthrough activity than aminoglycosides
O=C1NC(=S)S/C1=C\c1ccc(-c2cccc(F)c2)o1 [Compound 7q, (Z)-5-((5-(3-fluorophenyl)furan-2-yl)methylene)-2-thioxothiazolidin-4-one]	3.44	+	+	FC-ATM readthrough activity [1]: the best of this group
O=C1NC(=S)S/C1=C\c1ccc(-c2ccccc2Cl)o1 [Compound 7m, (Z)-5-((5-(2-chlorophenyl)furan-2-yl)methylene)-2-thioxothiazolidin-4-one]	3.55	+	+	FC-ATM readthrough activity [1]: the best of this group
N=C1NC(=O)/C(=C/c2ccc(-c3ccccc3Cl)o2)S1 [Compound 7f, (Z)-5-((5-(2-chlorophenyl)furan-2-yl)methylene)-2-iminothiazolidin-4-one]	negative	+		
